According to ChEMBL document CHEMBL1137075, “General model for estimation of the inhibition of protein kinases using Monte Carlo simulations” (J Med Chem, 2004):

What was measured:
[1] = molecular target: Tyrosine-protein kinase Lck (Homo sapiens, UniProt P06239)
Description: Evaluated for inhibition of human p56 Lck tyrosine kinase

[2] = molecular target: Cyclin-dependent kinase 2 (Homo sapiens, UniProt P24941); assay: Evaluated for inhibition of human cyclin dependent kinase 2 (CDK2)

Sequence of Tyrosine-protein kinase Lck (P06239 whole entry): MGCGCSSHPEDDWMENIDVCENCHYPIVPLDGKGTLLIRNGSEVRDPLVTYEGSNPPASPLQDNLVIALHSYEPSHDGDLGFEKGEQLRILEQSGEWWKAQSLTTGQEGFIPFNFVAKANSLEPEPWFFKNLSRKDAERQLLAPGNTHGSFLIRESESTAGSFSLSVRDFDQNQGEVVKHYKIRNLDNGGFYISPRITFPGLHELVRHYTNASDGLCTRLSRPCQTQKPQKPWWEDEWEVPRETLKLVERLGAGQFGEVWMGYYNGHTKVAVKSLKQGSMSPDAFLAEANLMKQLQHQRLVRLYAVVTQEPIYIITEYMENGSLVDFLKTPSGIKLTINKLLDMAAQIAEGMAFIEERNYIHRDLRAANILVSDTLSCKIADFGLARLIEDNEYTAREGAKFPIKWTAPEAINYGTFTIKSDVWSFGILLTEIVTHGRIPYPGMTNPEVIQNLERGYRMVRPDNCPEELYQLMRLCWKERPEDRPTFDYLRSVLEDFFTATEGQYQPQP

c1ccc2c(c1)nc(C1CCCCC1)c1cncn12
IC50 [1]: 3170 nM

Oc1[nH]c2ccccc2c1/N=N/c1ccccc1
IC50 [2]: 46 nM

COc1cc2nc(Nc3c(C)cccc3Cl)c3cnc(C=O)n3c2cc1OC
IC50 [1]: 10 nM

COc1ccc2[nH]c(O)c(/N=N/c3ccccc3)c2c1
IC50 [2]: 60 nM

COc1cc2nc(Nc3c(C)cccc3Cl)c3cnc(CO)n3c2cc1OC
IC50 [1]: 6.2 nM

CCCc1nc2ccccc2n2cncc12
IC50 [1]: 2680 nM

c1cncc(-c2nc3ccccc3n3cncc23)c1
IC50 [1]: 820 nM

Oc1[nH]c2ccc(Br)cc2c1/N=N/c1ccccc1
IC50 [2]: 43 nM

c1ccc2c(c1)nc(C1CC1)c1cncn12
IC50 [1]: 3170 nM
